Experimental data taken from ChEMBL document CHEMBL4177592, “Discovery of renin inhibitors containing a simple aspartate binding moiety that imparts reduced P450 inhibition” (Bioorg Med Chem Lett, 2017).

Key:
Renin [1] = molecular target: T1, Renin (Homo sapiens, UniProt P00797); experiment: Inhibition of trypsin-activated recombinant human Fc-tagged renin expressed in BacMam virus infected HEK-F cells using Arg-Glu-Lys(5-Fam)-Ile-His-Pro-Phe-His-Leu-Val-IleHis-Thr-Lys(5,6 Tamra)-Arg-CONH2 as substrate measured after 2 hrs
T1 sequence (P00797 whole entry): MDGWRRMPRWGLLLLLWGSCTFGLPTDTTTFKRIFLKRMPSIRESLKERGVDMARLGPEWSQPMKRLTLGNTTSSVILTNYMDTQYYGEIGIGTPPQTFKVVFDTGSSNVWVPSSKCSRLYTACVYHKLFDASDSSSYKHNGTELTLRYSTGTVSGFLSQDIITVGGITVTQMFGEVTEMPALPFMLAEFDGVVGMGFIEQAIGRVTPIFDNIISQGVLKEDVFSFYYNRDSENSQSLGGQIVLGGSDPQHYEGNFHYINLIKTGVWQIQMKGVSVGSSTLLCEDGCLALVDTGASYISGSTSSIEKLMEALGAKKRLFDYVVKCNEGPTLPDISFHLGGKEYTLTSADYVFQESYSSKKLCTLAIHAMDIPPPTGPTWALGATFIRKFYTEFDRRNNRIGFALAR

Renin [2] = molecular target: T1, Renin; experiment: Inhibition of renin in human plasma using angiotensinogen as substrate measured for 90 mins by [125I]-angiotensin based radioimmunoassay
Cytochrome P450 3A4 = Cytochrome P450 3A4 (Homo sapiens, UniProt P08684); experiment: Inhibition of human CYP3A4 expressed in Escherichia coli co-expressing CYP-reductase using diethoxyfluorescein as substrate measured after 10 mins by fluorescence assay
Cytochrome P450 3A4, sequence (P08684 whole entry): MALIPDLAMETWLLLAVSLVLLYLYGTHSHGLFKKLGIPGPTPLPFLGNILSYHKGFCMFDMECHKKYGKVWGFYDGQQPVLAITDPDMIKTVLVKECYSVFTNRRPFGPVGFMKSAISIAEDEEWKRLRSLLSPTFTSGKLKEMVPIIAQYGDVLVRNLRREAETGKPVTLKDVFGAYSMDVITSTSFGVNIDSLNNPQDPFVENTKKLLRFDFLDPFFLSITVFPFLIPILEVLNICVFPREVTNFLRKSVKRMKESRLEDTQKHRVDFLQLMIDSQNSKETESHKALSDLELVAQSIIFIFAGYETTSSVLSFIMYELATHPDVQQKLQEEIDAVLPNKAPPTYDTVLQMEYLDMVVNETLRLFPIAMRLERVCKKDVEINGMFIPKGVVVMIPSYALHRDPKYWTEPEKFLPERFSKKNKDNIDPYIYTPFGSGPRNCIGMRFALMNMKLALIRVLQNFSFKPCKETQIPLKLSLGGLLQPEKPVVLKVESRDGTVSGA

SMILES | IC50 (Renin [1]) [nM] | IC50 (Renin [2]) [nM] | IC50 (Cytochrome P450 3A4) [nM]
CCc1cccc(-c2c(F)cccc2C(O)(CCCNC(=O)OC)[C@@H]2CCCN(C(=O)CCCN(C)C)C2)c1 (some centres undefined) | 630 | – | –
CCc1cccc(-c2c(F)cccc2C(O)(CCCNC(=O)OC)[C@@H]2CCCN(C(=O)CCCN)C2)c1 (some centres undefined) | 1 | 13 | 240
CCc1cccc(-c2c(F)cccc2C(O)(CCCNC(=O)OC)[C@@H]2CCCN(C(=O)CC(O)CN)C2)c1 (some centres undefined) | 2 | 36 | 440
CCc1cccc(-c2c(Cl)cccc2C(O)(CCCNC(=O)OC)[C@@H]2CCCN(C(=O)[C@H]3C[C@@H](N)[C@@H](O)C3)C2)c1 (some centres undefined) | 0.3 | 1.8 | 250
CCc1cccc(-c2c(F)cccc2C(O)(CCCNC(=O)OC)[C@@H]2CCCN(C(=O)CCC3CCNCC3)C2)c1 (some centres undefined) | 80 | – | –
CCc1cccc(-c2c(Cl)cccc2C(O)(CCCNC(=O)OC)[C@@H]2CCCN(C(=O)[C@@H]3CC[C@H](N)C3)C2)c1 (some centres undefined) | 3.1 | 8.4 | 34
CCc1cccc(-c2c(Cl)cccc2C(O)(CCCNC(=O)OC)[C@@H]2CCCN(C(=O)[C@@H]3CC[C@H](NC)C3)C2)c1 (some centres undefined) | 0.6 | 4.3 | 49
CCc1cccc(-c2c(F)cccc2C(O)(CCCNC(=O)OC)[C@@H]2CCCN(C(=O)CC3CCCN3)C2)c1 (some centres undefined) | 800 | – | –
CCc1cccc(-c2c(F)cccc2C(O)(CCCNC(=O)OC)[C@@H]2CCCN(C(=O)C3CCNC3)C2)c1 (some centres undefined) | 25 | 540 | –
CCc1cccc(-c2c(F)cccc2C(O)(CCCNC(=O)OC)[C@@H]2CCCN(C(=O)CN)C2)c1 (some centres undefined) | 63 | 3800 | –
CCc1cccc(-c2c(F)cccc2C(O)(CCCNC(=O)OC)[C@@H]2CCCN(C(=O)CC[C@H](N)C(=O)OCc3ccccc3)C2)c1 (some centres undefined) | 16 | 450 | –
CCc1cccc(-c2c(F)cccc2C(O)(CCCNC(=O)OC)[C@@H]2CCCN(C(=O)C[C@H](O)CN)C2)c1 (some centres undefined) | 1.3 | – | –
CCc1cccc(-c2c(F)cccc2C(O)(CCCNC(=O)OC)[C@@H]2CCCN(C(=O)CC[C@H](N)C(=O)O)C2)c1 (some centres undefined) | 320 | – | –
CCc1cccc(-c2c(F)cccc2C(O)(CCCNC(=O)OC)[C@@H]2CCCN(C(=O)CCN)C2)c1 (some centres undefined) | 100 | – | –
CCc1cccc(-c2c(F)cccc2C(O)(CCCNC(=O)OC)[C@@H]2CCCN(C(=O)C3CCNCC3)C2)c1 (some centres undefined) | 6.3 | 102 | –
CCc1cccc(-c2c(F)cccc2C(O)(CCCNC(=O)OC)[C@@H]2CCCN(C(=O)C3CCCNC3)C2)c1 (some centres undefined) | 320 | – | –
CCc1cccc(-c2c(F)cccc2C(O)(CCCNC(=O)OC)[C@@H]2CCCN(C(=O)CCCNCCO)C2)c1 (some centres undefined) | 2.5 | 63 | –
CCc1cccc(-c2c(Cl)cccc2C(O)(CCCNC(=O)OC)[C@@H]2CCCN(C(=O)CCCNC)C2)c1 (some centres undefined) | 1 | 16 | 140

SMILES | IC50 (Renin [1]) [nM] | IC50 (Renin [2]) [nM] | IC50 (Cytochrome P450 3A4) [nM]
CCc1cccc(-c2c(F)cccc2C(O)(CCCNC(=O)OC)[C@@H]2CCCN(C(=O)C3CNCCO3)C2)c1 (some centres undefined) | 1000 | – | –
CCc1cccc(-c2c(F)cccc2C(O)(CCCNC(=O)OC)[C@@H]2CCCN(C(=O)CC[C@H](N)C(N)=O)C2)c1 (some centres undefined) | 630 | – | –
CCc1cccc(-c2c(F)cccc2C(O)(CCCNC(=O)OC)[C@@H]2CCCN(C(=O)CC[C@H](N)C(=O)OC)C2)c1 (some centres undefined) | 25 | 540 | –
CCc1cccc(-c2c(F)cccc2C(O)(CCCNC(=O)OC)[C@@H]2CCCN(C(=O)CCC3CCCCN3)C2)c1 (some centres undefined) | 126 | – | –
CCc1cccc(-c2c(F)cccc2C(O)(CCCNC(=O)OC)[C@@H]2CCCN(C(=O)[C@@H](O)CCN)C2)c1 (some centres undefined) | 40 | 840 | –
CCc1cccc(-c2c(F)cccc2C(O)(CCCNC(=O)OC)[C@@H]2CCCN(C(=O)CCCCCN)C2)c1 (some centres undefined) | 3.2 | 100 | –
CCc1cccc(-c2c(F)cccc2C(O)(CCCNC(=O)OC)[C@@H]2CCCN(C(=O)C3CCCCN3)C2)c1 (some centres undefined) | 2000 | – | –
CCc1cccc(-c2c(F)cccc2C(O)(CCCNC(=O)OC)[C@@H]2CCCN(C(=O)CC3CCNCC3)C2)c1 (some centres undefined) | 1.6 | 23 | –
CCc1cccc(-c2c(F)cccc2C(O)(CCCNC(=O)OC)[C@@H]2CCCN(C(=O)CC(CNC)OC)C2)c1 (some centres undefined) | 5 | 50 | –
CCc1cccc(-c2c(F)cccc2C(O)(CCCNC(=O)OC)[C@@H]2CCCN(C(=O)NCCN)C2)c1 (some centres undefined) | 3.2 | 150 | –
CCc1cccc(-c2c(F)cccc2C(O)(CCCNC(=O)OC)[C@@H]2CCCN(C(=O)CCCCN)C2)c1 (some centres undefined) | 2 | 120 | –
CCc1cccc(-c2c(F)cccc2C(O)(CCCNC(=O)OC)[C@@H]2CCCN(C(=O)NCCNC)C2)c1 (some centres undefined) | 6.3 | 120 | –
CCc1cccc(-c2c(F)cccc2C(O)(CCCNC(=O)OC)[C@@H]2CCCN(C(=O)CC3CCCNC3)C2)c1 (some centres undefined) | 2 | 40 | –
CCc1cccc(-c2c(F)cccc2C(O)(CCCNC(=O)OC)[C@@H]2CCCN(C(=O)CC[C@H](N)CO)C2)c1 (some centres undefined) | 20 | 460 | –
CCc1cccc(-c2c(F)cccc2C(O)(CCCNC(=O)OC)[C@@H]2CCCN(C(=O)[C@@H]3CC[C@H](N)C3)C2)c1 (some centres undefined) | 0.6 | 3.3 | 90
CCc1cccc(-c2c(F)cccc2C(O)(CCCNC(=O)OC)[C@@H]2CCCN(C(=O)CC3CNCCO3)C2)c1 (some centres undefined) | 1.6 | 24 | –
CCc1cccc(-c2c(F)cccc2C(O)(CCCNC(=O)OC)[C@@H]2CCCN(C(=O)CC[C@@H](N)CO)C2)c1 (some centres undefined) | 6.3 | 180 | –
CCc1cccc(-c2c(F)cccc2C(O)(CCCNC(=O)OC)[C@@H]2CCCN(C(=O)CC(O)CNC)C2)c1 (some centres undefined) | 2 | 29 | 840
